Read-outs that look alike come from different tables or passages of the source. Where no end group is shown, it is not given here.
Experiments:
S. aureus (ATCC 29213) = test: MIC, standard microtiter dilution (CLSI); type: cell-based; conditions: broth microdilution (CLSI), CAMHB, 37 °C, 24 h
Procedure, shortened: (§1)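 In this CLSI-recommended assay, peptides were serially diluted twofold and combined with bacteria at 10^6 CFU/mL in cation-adjusted Mueller Hinton Broth.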

E. faecalis (ATCC 29212) = tested on: E. faecalis (ATCC 29212)
Procedure, shortened: as §1

[1] = tested on: Bacillus cereus (ATCC 13061)
Procedure, shortened: as §1

[2] = tested on: S. pneumoniae (ATCC 49619); conditions: Gram-positive; CLSI microdilution, CAMHB + 2.5% lysed horse blood, 37 °C, 24 h; highest MIC of three independent experiments in triplicate
Procedure, shortened: as §1

[3] = Relative hydrophobicity as RP-HPLC retention time; type: physicochemical; conditions: chromatographic, Phenomenex Luna C18 4 μm 150 × 4.6 mm, linear AB gradient 1% acetonitrile/min, 0.3 mL/min, A water 0.1% TFA, B acetonitrile 0.1% TFA, 25 °C
Method: The purity analysis of the peptides was conducted on a RP-HPLC system (Shimadzu; LC-20ADXR) by using a Phenomenex (Luna) analytical C18 column (4 μm, 150 × 4.6 mm). The mass of the purified peptides was determined in the positive-ion mode using Q-TOF LC/MS (Compass Hystar 4.1, Bruker, USA). The purity (>95%) and mass data of all the synthesized peptides are provided in the Supporting Information.
8. Comparative Hydrophobicity analysis
The purity of all synthesized peptides was determined using reverse phase analytical HPLC
(Shimadzu; LC-20ADXR). Below mentioned are the conditions used to conduct the purity
Column: Phenomenex (Luna), 4 um, C18, 150 × 4.6 mm
Mobile Phase: Buffer A-Water containing 0.1% TFA,
Buffer B-Acetonitrile containing 0.1% TFA
Figure S52. HPLC chromatogram of 6a.
(1 picture or pasted object on this page, not shown here)

[4] = tested on: human red blood cells (hRBCs); test: Hemolytic assay; type: cell-based; conditions: for decrease in the hemolytic activity on replacing Arg with Lys: 7b vs 7a, 8b vs 8a, HC50, hRBC; for HC50 (concentration at which 50% hemolysis was observed): 2 h, 37 °C
Procedure, shortened: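 Percent hemolysis uses PBS as 0% and 1% Triton X-100 as 100% references, from supernatant absorbance at 567 nm. Red cells (4% in PBS, equal volume) exposed 2 h at 37 °C without agitation to 2-fold serially diluted peptide.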

E. coli (ATCC 25922) = conditions: for MIC, E. coli (ATCC 25922): broth microdilution (CLSI), CAMHB, 37 °C, 24 h
Procedure, shortened: as §1

[5] = tested on: P. aeruginosa (ATCC BAA-1744); conditions: Gram-negative, resistant strain (marked a; imipenem resistant in Table S3); CLSI microdilution, CAMHB, 37 °C, 24 h; highest MIC of three independent experiments in triplicate
Procedure, shortened: as §1

[6] = tested on: A. baumannii (ATCC BAA1605); conditions: Gram-negative, footnote e ciprofloxacin (MDR in Table S3); CLSI microdilution, CAMHB, 37 °C, 24 h; highest MIC of three independent experiments in triplicate
Procedure, shortened: as §1

E. coli (ATCC BAA-2452) = conditions: Gram-negative, NDM-1; CLSI microdilution, CAMHB, 37 °C, 24 h; highest MIC of three independent experiments in triplicate
Procedure, shortened: as §1

[7] = tested on: nonresistant and MDR S. pneumoniae; conditions: Table 2
Procedure, shortened: as §1

[8] = 10^6 CFU/mL, highest MIC of three independent experiments in triplicate
[9] = Gram-positive, CLSI microdilution, CAMHB, 37 °C, 24 h, highest MIC of three independent experiments in triplicate
[10] = hRBC suspension 4% in PBS, hemoglobin release at 567 nm, 1% Triton X-100 = 100%
[11] = value in parentheses (μM), hRBC 4% in PBS, 567 nm
[12] = media with 1 mM MgCl2, three independent experiments in triplicate
[13] = media with 2 mM CaCl2, three independent experiments in triplicate
[14] = media with 4.5 mM KCl, three independent experiments in triplicate
[15] = media with 6 mM NH4Cl, three independent experiments in triplicate
[16] = MH media without salt ions or serum, three independent experiments in triplicate

Row | Compound | MIC, S. aureus (ATCC 29213) (S. aureus (ATCC 29213); [8]) [µg/mL] | MIC, S. aureus (ATCC 29213) (S. aureus (ATCC 29213); value in parentheses (μM)) [µM] | MIC, E. faecalis (ATCC 29212) (E. faecalis (ATCC 29212); [9]) [µg/mL] | MIC, Bacillus cereus (ATCC 13061) [1, 9] [µg/mL] | MIC, S. pneumoniae (ATCC 49619) [2] [µg/mL] | tR, RP-HPLC retention time (measure of overall hydrophobicity) [3] [min] | decrease in the hemolytic activity on replacing Arg with Lys [4] | HC50 (concentration at which 50% hemolysis was observed) [4, 10] [µg/mL] | HC50 (concentration at which 50% hemolysis was observed) [4, 11] [µM] | MIC, E. coli (ATCC 25922), Control (E. coli (ATCC 25922); ATCC 25922, 24 h) [µg/mL] | MIC, E. coli (ATCC 25922), FBS (25%) (E. coli (ATCC 25922); ATCC 25922, 24 h) [µg/mL] | MIC, E. coli (ATCC 25922), KCl (E. coli (ATCC 25922); ATCC 25922, 24 h) [µg/mL] | MIC, E. coli (ATCC 25922), NH4Cl (E. coli (ATCC 25922); ATCC 25922, 24 h) [µg/mL] | MIC, E. coli (ATCC 25922), NaCl (E. coli (ATCC 25922); ATCC 25922, 24 h) [µg/mL] | MIC, E. coli (ATCC 25922) (E. coli (ATCC 25922); [8]) [µg/mL] | MIC, E. coli (ATCC 25922) (E. coli (ATCC 25922); value in parentheses (μM)) [µM] | MIC, Bacillus cereus (ATCC 13061) ([1]; ATCC 13061, 24 h) [µg/mL] | MIC, P. aeruginosa (ATCC BAA-1744) [5] [µg/mL] | MIC, A. baumannii (ATCC BAA1605) [6] [µg/mL] | MIC, E. coli (ATCC BAA-2452) (E. coli (ATCC BAA-2452)) [µg/mL] | further results
1 | CCCCCCCCCC(=O)N[C@@H](Cc1c[nH]c2ccccc12)C(=O)N[C@H](CC(N)=O)C(=O)N[C@@H](CC(=O)O)C(=O)N[C@@H]1C(=O)NCC(=O)N[C@@H](CCCN)C(=O)N[C@@H](CC(=O)O)C(=O)N[C@H](C)C(=O)N[C@@H](CC(=O)O)C(=O)NCC(=O)N[C@H](CO)C(=O)N[C@@H]([C@H](C)CC(=O)O)C(=O)N[C@@H](CC(=O)c2ccccc2N)C(=O)O[C@@H]1C [daptomycin, reference compound] | 0.7 | 0.43 | 6.2 | 1.5 | 12.5 | – | – | – | – | – | – | – | – | – | – | – | – | – | – | – | –
2 | KWIKKWIKWWKK-NH2 [7b] | 6.2 | 3.53 | 12.5 | – | – | 32.23 | approximately 5 fold | 460 | 261.77 | 6.2 | 50 | 25 | 25 | 25 | 6.2 | 3.53 | 6.2 | 12.5 | 12.5 | 6.2 | MIC, E. coli (ATCC 25922), MgCl2 (E. coli (ATCC 25922); [12]): 12.5 µg/mL; MIC, E. coli (ATCC 25922), CaCl2 (E. coli (ATCC 25922); [13]): 12.5 µg/mL
3 | KWLKKWLKWWKK-NH2 [8b] | 3.1 | 1.76 | – | – | 12.5 | 33.41 | approximately 5 fold | – | 159.34 | 6.2 | 25 | – | – | 25 | 6.2 | 3.53 | 3.1 | 6.2 | 3.1 | 6.2 | HC50 ([4]; abstract, hRBC): 280 µg/mL; MIC, E. faecalis (ATCC 29212) (E. faecalis (ATCC 29212); ATCC 29212, 24 h): 6.2 µg/mL; MIC, E. coli (ATCC 25922), CaCl2 (E. coli (ATCC 25922); ATCC 25922, 24 h): 25 µg/mL; MIC, E. coli (ATCC 25922), MgCl2 (E. coli (ATCC 25922); ATCC 25922, 24 h): 25 µg/mL; MIC, E. coli (ATCC 25922), KCl (E. coli (ATCC 25922); [14]): 12.5 µg/mL; MIC, E. coli (ATCC 25922), NH4Cl (E. coli (ATCC 25922); [15]): 12.5 µg/mL; MIC, nonresistant and MDR S. pneumoniae [7]: 12.5 µg/mL
4 | RWIRRWIRWWRR-NH2 [7a] | 6.2 | 3.22 | 12.5 | 12.5 | – | 33.93 | – | 90 | 46.74 | – | 50 | – | – | 25 | 6.2 | 3.22 | – | 12.5 | 12.5 | 12.5 | MIC, E. coli (ATCC 25922), Control (E. coli (ATCC 25922); [16]): 6.2 µg/mL; MIC, E. coli (ATCC 25922), MgCl2 (E. coli (ATCC 25922); [12]): 12.5 µg/mL; MIC, E. coli (ATCC 25922), CaCl2 (E. coli (ATCC 25922); [13]): 12.5 µg/mL; MIC, E. coli (ATCC 25922), KCl (E. coli (ATCC 25922); [14]): 12.5 µg/mL; MIC, E. coli (ATCC 25922), NH4Cl (E. coli (ATCC 25922); [15]): 12.5 µg/mL
5 | RWLRRWLRWWRR-NH2 [8a] | 6.2 | 3.22 | 12.5 | – | – | 34.99 | – | 45 | 23.37 | – | > 50 | 25 | 25 | > 50 | 12.5 | 6.49 | 6.2 | 12.5 | 6.2 | 12.5 | MIC, E. coli (ATCC 25922), CaCl2 (E. coli (ATCC 25922); ATCC 25922, 24 h): 25 µg/mL; MIC, E. coli (ATCC 25922), MgCl2 (E. coli (ATCC 25922); ATCC 25922, 24 h): 50 µg/mL; MIC, E. coli (ATCC 25922), Control (E. coli (ATCC 25922); [16]): 12.5 µg/mL

— article PMC9841524, “Structure-Based Rational Design of Small α-Helical Peptides with Broad-Spectrum Activity against Multidrug-Resistant Pathogens” (Journal of Medicinal Chemistry, 2022)
